The test system of assay [1] is C. elegans strain with a pharyngeal GFP tag and a bus-5 mutation. Description: C. elegans chronological lifespan assay versus small molecule AChE inhibitors (Example 4). Type of assay: in vivo. The settings on record: 10 mg/ml; for maximum improvement in survival: at day 13 (N350), day 12 (N355, N314), day 9 (N354); for improvement in mean life span: vs control. Here is the method:
The samples were prepared as a DMSO-based 10 mg/ml stock, aliquoted when necessary and a serial dilution of the stock solution was performed for N92-4. The stock solutions were stored at −20° C.
The assay was carried out using the standard C. elegans strain with a pharyngeal GFP tag and a bus-5 mutation. The GFP tag enables images of the worms to be captured using fluorescence microscopy. […] The worms were raised in the presence of a treatment or control on 12 well NGM agar plates, and were maintained at 20° C. with sufficient food (Escherichia coli strain OP-50).
A proprietary data analysis software package was used to analyse the effects of different active ingredients on aspects of worm ageing. The package was developed using a MATLAB image analysis algorithm which was adapted to recognise and count worms based on their fluorescence intensity above background fluorescence. A living worm is distinguished from a dead worm based on the degree of movement between two consecutive images, which enables the number of living and cumulative number of dead worms to be tracked throughout the experiment. […] A selection of images was manually checked to ensure the software had correctly identified the number of worms.
The statistical analysis output of OASIS provides Log-Rank and Fishers Exact Test results. The Log-Rank result is a non-parametric test which compares two survival functions for the overall lifespan assay, providing a reliable p-value summarising the whole experiment. The Fishers Exact Test calculates the significance of survival function comparisons at multiple specific time points throughout the experiment, rather than for the overall lifespan

The test system of a further assay is Yeast. Conditions: cited from earlier work.

SMILES strings stand for the structures.

`CCN(C)C(=O)Oc1cccc([C@H](C)N(C)C)c1` [N355, Rivastigmine]: in assay [1], the Restricted mean lifespan turned out to be 14.04 days, the “maximum improvement in lifespan” value was “+15.6%”, the “maximum improvement in survival” value was “up to +13.3%” and the “improvement in mean life span” value was “+7.9%”.
Turning to `COc1ccc2c3c1O[C@H]1C[C@@H](O)C=C[C@@]31CCN(C)C2` [N354, Galantamine], in assay [1], the Restricted mean lifespan worked out at 14.05 days, the “maximum improvement in lifespan” value is “+15.9%”, the “maximum improvement in survival” value was “up to +11.6%” and the “improvement in mean life span” value is given as “+8%”.
As to `Oc1ccc(C=Cc2cc(O)cc(O)c2)cc1` [Resveratrol], the effect on lifespan result in the assay with Yeast is listed as “able to increase lifespan in yeast”.

Values taken from patent US20210220420A1, “BOTANICAL COMPOSITIONS OF SALVIA O[…] ACTIVITY IN EXTENDING CHR[…] AND METHODS OF USE” (priority 2016, published 2021).
